Each block holds one molecule with its values, some of them ahead of it.
Columns and labels:
ACTH = assay: Systemic Effects--ACTH Suppression in Adrenalectomised Rats; assay type: in vivo, Male CD rats; details: single intra-tracheal, 4 h
Procedure: (ii) Systemic Effects--ACTH Suppression in Adrenalectomised Rats
Male CD rats (90-120 g) were adrenalectomised under Isoflurane anaesthesia and drinking water was supplemented with 0.9% saline. Four days later the animals receive a single intra-tracheal dose (under Isoflurane anaesthesia) of compound suspended in saline (containing 0.2% Tween-80, 0.2 ml) at 10am. After 4 h animals are sacrificed by administration of Euthetal and blood samples are taken by intra-cardiac puncture and collected into heparinised tubes. The samples are centrifuged (20 minutes at 1000 RPM at 4 deg C.), the plasma is collected and assayed by Radioimmunoassay (RIA) for Adrenocorticotrophic hormone (ACTH) using a DPC double antibody RIA kit. Intact and vehicle control groups were included in each experiment in order to account for diurnal variation in ACTH and effects of vehicle. Results are calculated with respect to the RIA standard curve and expressed as ACTH pg/ml plasma, allowing percentage reduction in ACTH to be calculated.

Rat Ear Oedema = assay: Anti-Inflammatory Activity--Inhibition of Rat Ear Oedema (croton oil); assay type: in vivo; details: dose 100 μg, inner surface of ears, male rats, 6 hours
Procedure: (i) Anti-Inflammatory Activity--Inhibition of Rat Ear Oedema
The test compounds are dissolved in acetone and 40ul containing 5% croton oil is applied to the inner surface of each of the ears of 60-80 g male rats. Animals are killed 6 hours later and the ears are removed. Standard size (0.5 cm diameter) discs are punched out and the discs weighed. Mean weight of the ear discs is calculated and from this percentage inhibition of ear inflammation in relation to croton oil alone treated ears are calculated.

SMILES: CC1(C)O[C@@H]2C[C@H]3[C@@H]4C[C@H](F)C5=CC(=O)C=C[C@]5(C)[C@@]4(F)[C@@H](O)C[C@]3(C)[C@]2(SC2CCOC2=O)O1 (single isomer, unassigned) [Example 2 Isomer A, 6α,9α-Difluoro-11β-hydroxy-16α,17α-isopropylidenedioxy-17β-(2-oxo-tetrahydro-furan-3-yl-sulfanyl)-androsta-1,4-dien-3-one]
% Reduction in ACTH (ACTH; dose 125 μg): 5%
% Reduction in ACTH (ACTH; dose 250 μg): 29%
% Reduction in ACTH (ACTH; dose 500 μg): 45%
% Inhibition (ear inflammation) (Rat Ear Oedema): 56%

SMILES: CC1(C)O[C@@H]2C[C@H]3[C@@H]4C[C@H](F)C5=CC(=O)C=C[C@]5(C)[C@@]4(F)[C@@H](O)C[C@]3(C)[C@]2(S[C@H]2CCOC2=O)O1 (single isomer, unassigned) [Example 2 Isomer B, 6α,9α-Difluoro-11β-hydroxy-16α,17α-isopropylidenedioxy-17β-(2-oxo-tetrahydro-furan-3-yl-sulfanyl)-androsta-1,4-dien-3-one]
% Inhibition (ear inflammation) (Rat Ear Oedema): 54%

SMILES: CCC[C@@H]1O[C@@H]2C[C@H]3[C@@H]4C[C@H](F)C5=CC(=O)CC[C@]5(C)[C@@]4(F)[C@@H](O)C[C@]3(C)[C@]2(SC2CCOC2=O)O1 (single isomer, unassigned) [Example 3 Isomer A, 16α,17α-(R-Butylidenedioxy)-6α,9α-difluoro-11β-hydroxy-17β-(2-oxo-tetrahydro-furan-3-yl-sulfanyl)-androst-4-en-3-one]
% Inhibition (ear inflammation) (Rat Ear Oedema): 55%

% Reduction in ACTH (ACTH; dose 1 μg): 49%
% Reduction in ACTH (ACTH; dose 5 μg): 84%
SMILES: CC1(C)O[C@@H]2C[C@H]3[C@@H]4C[C@H](F)C5=CC(=O)C=C[C@]5(C)[C@@]4(F)[C@@H](O)C[C@]3(C)[C@]2(C(=O)CO)O1 [Fluocinolone acetonide, reference compound]
